The subject of experiment [1] is MCF7. As to the kind of experiment: Cytotoxicity against human MCF7 cells assessed as inhibition of cell proliferation after 3 days by MTT assay. The following applies: MCF7, 72 h. It is filed as functional, cell-based.
In experiment [2] the target is Vascular endothelial growth factor receptor 2 (Homo sapiens, UniProt P35968). As to the kind of experiment: Inhibition of VEGFR2 in human MCF7 cells by horseradish peroxidase-coupled TMB substrate based ELISA. It is filed as cell-based. (ELISA stands for enzyme-linked immunosorbent assay.)
Sequence of Vascular endothelial growth factor receptor 2 (P35968 whole entry): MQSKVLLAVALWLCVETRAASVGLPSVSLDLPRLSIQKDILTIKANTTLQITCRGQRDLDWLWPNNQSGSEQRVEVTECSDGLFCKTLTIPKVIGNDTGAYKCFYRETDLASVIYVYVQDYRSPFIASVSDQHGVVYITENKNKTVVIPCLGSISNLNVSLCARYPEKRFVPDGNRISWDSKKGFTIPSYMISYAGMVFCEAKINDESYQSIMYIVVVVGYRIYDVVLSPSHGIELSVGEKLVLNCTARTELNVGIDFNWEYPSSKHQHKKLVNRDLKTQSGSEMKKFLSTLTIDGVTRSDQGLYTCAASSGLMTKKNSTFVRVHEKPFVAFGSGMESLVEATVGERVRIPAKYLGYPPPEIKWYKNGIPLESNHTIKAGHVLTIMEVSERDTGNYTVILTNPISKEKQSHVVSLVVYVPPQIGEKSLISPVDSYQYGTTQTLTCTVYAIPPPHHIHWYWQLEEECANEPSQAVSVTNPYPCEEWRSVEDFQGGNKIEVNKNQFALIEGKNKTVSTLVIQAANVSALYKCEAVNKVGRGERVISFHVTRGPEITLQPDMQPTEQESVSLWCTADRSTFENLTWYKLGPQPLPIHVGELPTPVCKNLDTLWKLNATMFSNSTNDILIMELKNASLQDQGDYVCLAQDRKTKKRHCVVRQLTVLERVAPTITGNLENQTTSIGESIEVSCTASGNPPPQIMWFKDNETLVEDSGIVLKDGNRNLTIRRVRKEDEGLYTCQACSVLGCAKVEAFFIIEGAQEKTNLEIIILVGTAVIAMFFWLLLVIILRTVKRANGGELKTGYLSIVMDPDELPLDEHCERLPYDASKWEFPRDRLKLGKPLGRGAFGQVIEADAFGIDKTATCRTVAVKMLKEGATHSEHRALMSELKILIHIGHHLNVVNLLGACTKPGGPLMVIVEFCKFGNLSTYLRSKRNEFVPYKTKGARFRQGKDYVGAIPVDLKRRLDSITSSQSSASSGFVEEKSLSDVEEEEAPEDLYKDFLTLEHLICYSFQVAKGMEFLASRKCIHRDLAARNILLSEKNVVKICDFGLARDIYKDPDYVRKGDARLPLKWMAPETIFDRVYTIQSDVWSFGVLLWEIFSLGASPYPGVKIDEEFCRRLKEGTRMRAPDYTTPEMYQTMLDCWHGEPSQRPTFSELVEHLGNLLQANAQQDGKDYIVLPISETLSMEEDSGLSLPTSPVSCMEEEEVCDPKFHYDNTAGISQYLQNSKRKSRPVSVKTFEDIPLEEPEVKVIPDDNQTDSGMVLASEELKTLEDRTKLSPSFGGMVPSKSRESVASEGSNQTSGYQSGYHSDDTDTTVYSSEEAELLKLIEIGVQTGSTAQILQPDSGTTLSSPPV
Experiment [3] relates to PC-3. As to the kind of experiment: Cytotoxicity against human PC3 cells assessed as inhibition of cell proliferation after 3 days by MTT assay. It is filed as functional, cell-based. In general terms: Tetrazolium assays rely on reduction of a dye to a coloured formazan, in cell work by metabolically active cells.
Experiment [4] relates to MCF7. As to the kind of experiment: Cell cycle arrest in human MCF7 cells assessed as accumulation at G2/M phase after 48 hrs by propidium iodide/RNase A staining based flow cytometry analysis. It is filed as functional. For orientation: Flow cytometry measures light scatter and fluorescence of single cells or particles in a stream.
Experiment [5] deals with MCF7. As to the kind of experiment: Cell cycle arrest in human MCF7 cells assessed as induction of preG1 apoptosis after 48 hrs by propidium iodide/RNase A staining based flow cytometry analysis. Type of experiment: functional.
Experiment [6] has as its system MCF7. As to the kind of experiment: Induction of apoptosis in human MCF7 cells assessed as necrotic cells at after 48 hrs by Annexin V-FITC/propidium iodide staining based flow cytometric analysis (reference value: 0.41 %). Type of experiment: functional.
Experiment [7] has as its system MCF7. As to the kind of experiment: Induction of apoptosis in human MCF7 cells assessed as early apoptotic cells after 48 hrs by Annexin V-FITC/propidium iodide staining based flow cytometric analysis (reference value: 1.56 %). It is filed as functional.
Experiment [8] deals with MCF7. As to the kind of experiment: Induction of apoptosis in human MCF7 cells assessed as late apoptotic cells after 48 hrs by Annexin V-FITC/propidium iodide staining based flow cytometric analysis (reference value: 0.3 %). Type of experiment: functional.
Experiment [9] has as its system MCF7. As to the kind of experiment: Induction of apoptosis in human MCF7 cells assessed as up regulation of caspase 9 expression by measuring caspase 9 level by ELISA (reference value: 1.223 ng/ml). It is filed as functional.

Activity calls are given as the source filed them. The calls are words filed in the database; no cut-off is given here.

This note sets out measurements from ChEMBL document CHEMBL4627262, “VEGFR-2 inhibiting effect and molecular modeling of newly synthesized coumarin derivatives as anti-breast cancer agents” (Bioorg Med Chem, 2020).

For the molecule `Cc1cc(=O)oc2cc(OCC(=O)Nn3c(=O)[nH]c4ccccc4c3=O)ccc12`, the figures for the IC50 in experiment [1] and in experiment [2] were 1.65 µM and 0.66 µM, respectively. In [3], the inhibition result is “inactive”.
`Cc1cc(=O)oc2cc(OCC(=O)NNC(=O)c3ccccc3)ccc12`: the IC50 in experiment [1] is 7.89 µM. Besides, in experiment [3], the inhibition entry is “inactive”.
Take `Cc1cc(=O)oc2cc(OCC(=O)NNCc3ccccc3)ccc12`: the IC50 stood at 1.24 µM in [1] and 0.36 µM in experiment [2]. The result in experiment [4] and in [5] was Active. Further, the Activity turned out to be 1.92% in experiment [6], 6.72% in experiment [7], 17.78% in [8] and 8.015 ng/mL in [9]. Moreover, in [3], the inhibition entry was “inactive”.
In the case of `CN[C@@H]1C[C@H]2O[C@@](C)([C@@H]1OC)n1c3ccccc3c3c4c(c5c6ccccc6n2c5c31)C(=O)NC4` [STAUROSPORINE], the Activity in [6] came out at 2.33%; in [7], 8.16%; in experiment [8] it was 11.27%; in experiment [9], 8.41 ng/mL.
Take `Cc1cc(=O)oc2cc(OCC(=O)N/N=C/c3ccc(F)cc3)ccc12`: the IC50 in [1] worked out at 9.78 µM. In addition, the inhibition result in experiment [3] was “inactive”.
In the case of `Cc1cc(=O)oc2cc(OCC(=O)N/N=C/c3ccc(N(C)C)cc3)ccc12`, the IC50 in [1] was determined as 5.54 µM. Further, in experiment [3], the inhibition entry is “inactive”.
Take `Cc1cc(=O)oc2cc(OCC(=O)NN3C(=O)c4ccccc4C3=O)ccc12`: the IC50 in [1] turned out to be 14.7 µM. Further, in experiment [3], the inhibition entry is “inactive”.
In the same order, the values of `Cc1cc(=O)oc2cc(OCC(=O)NN3C(=O)C=CC3=O)ccc12` are 2.11 µM and “inactive”.
For `CN1CCN(S(=O)(=O)c2ccc3oc(=O)c(Br)cc3c2)CC1` the same measures were 31.4 µM and “inactive”.
With `Cc1ccc(/C=N/NC(=O)COc2ccc3c(C)cc(=O)oc3c2)o1`, in experiment [1], the IC50 turned out to be 3.19 µM. Also, in experiment [3], the inhibition entry was “inactive”.
`Cc1cc(=O)oc2cc(OCC(=O)NNC(=O)CN3CCOCC3)ccc12`: the concentration for half-maximal inhibition (IC50) in experiment [1] was determined as 37.3 µM. Also, in [3], the inhibition result was “inactive”.
In the case of `O=c1oc2ccc(S(=O)(=O)N3CCCCC3)cc2cc1Br`, the IC50 in experiment [1] is 2.07 µM. The inhibition result in experiment [3] is “inactive”.
For `O=c1oc2ccc(S(=O)(=O)Nc3nc4ccccc4[nH]3)cc2cc1Br`, the IC50 in [1] is 3.65 µM. Moreover, the inhibition entry in experiment [3] is “inactive”.
`O=c1oc2ccc(S(=O)(=O)N3CCOCC3)cc2cc1Br`: in experiment [1], the half-maximal inhibitory concentration (IC50) turned out to be 13.2 µM. In addition, the inhibition entry in [3] is “inactive”.
`Cc1cc(=O)oc2cc(OCC(=O)NNC(=O)CN3CCN(C)CC3)ccc12`: the IC50 in experiment [1] turned out to be 6.68 µM. For the same molecule, the inhibition result in experiment [3] is “inactive”.
For `Cc1cc(=O)oc2cc(OCC(=O)NN(C(=O)c3ccncc3)C(=O)c3ccncc3)ccc12`, the IC50 in experiment [1] came out at 8.68 µM. Further, the inhibition result in [3] is “inactive”.
Consider `O=c1oc2ccc(S(=O)(=O)NCc3ccc4c(c3)OCO4)cc2cc1Br`, for which the 50% inhibitory concentration (IC50) in experiment [1] was found to be 7.79 µM. Moreover, in [3], the inhibition result is “inactive”.
In the same order, the values of `COc1cc(OC)c(CNS(=O)(=O)c2ccc3oc(=O)c(Br)cc3c2)c(OC)c1` are 5.76 µM and “inactive”.
Take `Cc1cc(=O)oc2ccc(N3C(=O)c4ccccc4C3=O)cc12`: in experiment [1], the IC50 was determined as 4.17 µM. Besides, the inhibition entry in [3] was “inactive”.
In the case of `Cc1cc(=O)oc2cc(OCC(=O)N/N=C/c3ccc([N+](=O)[O-])cc3)ccc12`, in [1], the IC50 was 5.59 µM. The inhibition result in [3] was “inactive”.
For the molecule `Cc1cc(=O)oc2ccc(NC(=O)c3ccccc3)cc12`, the half-maximal inhibitory concentration (IC50) in experiment [1] came out at 4.6 µM. For the same molecule, the inhibition entry in experiment [3] was “inactive”.

What is called IC50 is the concentration that inhibits the measured activity by half.
